The target in this test is Recombinant human BACE-1 (Homo sapiens (Human), UniProt P56817). As to the kind of experiment: Assay of β-secretase-inhibiting activity. The class given is biochemical. The settings on record: substrate peptide 18 nM, BACE-1 7.4 nM, sodium acetate buffer pH 5.0, 30° C. for 3 hours.
Chain of Recombinant human BACE-1 (P56817 46-501): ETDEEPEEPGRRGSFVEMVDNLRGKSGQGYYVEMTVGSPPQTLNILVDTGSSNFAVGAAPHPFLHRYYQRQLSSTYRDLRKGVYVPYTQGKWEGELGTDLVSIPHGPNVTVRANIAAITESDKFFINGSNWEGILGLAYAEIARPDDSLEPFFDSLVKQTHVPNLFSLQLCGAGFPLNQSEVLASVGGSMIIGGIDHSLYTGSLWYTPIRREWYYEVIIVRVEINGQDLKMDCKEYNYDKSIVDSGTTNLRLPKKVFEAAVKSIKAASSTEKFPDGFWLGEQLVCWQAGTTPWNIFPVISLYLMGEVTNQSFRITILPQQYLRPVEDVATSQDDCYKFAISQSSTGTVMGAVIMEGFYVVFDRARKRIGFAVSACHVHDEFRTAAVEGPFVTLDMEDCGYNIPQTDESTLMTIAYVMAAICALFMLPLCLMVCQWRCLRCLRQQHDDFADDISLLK

For `CC1(C)C[C@@](C)(c2cncc(NC(=O)c3ccc(Cl)cn3)c2)N=C(N)S1` [Compound 604], the IC50 (usually the point on the concentration scale where inhibition reaches its midpoint) was ≤ 1000 nM.

The values are drawn from patent US8541408B2, “Aminodihydrothiazine derivatives substituted with a cyclic group” (Shionogi & Co., Ltd., priority 2007, dated 2013).
